Assay results from ChEMBL document CHEMBL5316359, “Strophioblachins A-K, Structurally Intriguing Diterpenoids from Strophioblachia fimbricalyx with Potential Anticardiac Hypertrophic Inhibitory Activity” (J Nat Prod, 2023).
Active and inactive are the calls of the source. The calls are words filed in the database; no cut-off is given here.

Columns and labels:
[1] = Cytotoxicity against neonatal Sprague-Dawley rat cardiomyocyte assessed as reduction in ANP expression incubated for 48 hrs by ELISA assay; type: toxicity, cell-based, Cardiac muscle cell; details: neonatal rat cardiomyocytes
Cardiac muscle cell [2] = experiment: Anticardiac hypertrophic activity in phenylephrine-induced hypertrophy in neonatal Sprague-Dawley rat cardiomyocyte assessed as decrease in NPPA mRNA expression at 5 to 50 uM preincubated for 12 hrs followed by phenylephrine stimulation and measured after 48 hrs by qRT-PCR analysis; type: functional, cell-based; details: dose 5-50 µM, time 60.0 hrs
Cardiac muscle cell [3] = experiment: Anticardiac hypertrophic activity in phenylephrine-induced hypertrophy in neonatal Sprague-Dawley rat cardiomyocyte assessed as decrease in NPPB mRNA expression at 5 to 50 uM preincubated for 12 hrs followed by phenylephrine stimulation and measured after 48 hrs by qRT-PCR analysis; type: functional, cell-based; details: dose 5-50 µM, time 60.0 hrs
Cardiac muscle cell [4] = experiment: Anticardiac hypertrophic activity in phenylephrine-induced hypertrophy in neonatal Sprague-Dawley rat cardiomyocyte assessed as decrease in ANP protein expression at 5 to 50 uM preincubated for 12 hrs followed by phenylephrine stimulation and measured after 48 hrs by Western blot analysis; type: functional, cell-based; details: dose 5-50 µM, time 60.0 hrs

Row | SMILES | IC50 at 48 h [1] | Activity (Cardiac muscle cell [2]) | Activity (Cardiac muscle cell [3]) | Activity (Cardiac muscle cell [4])
1 | COC(=O)c1cc2c(cc1OC)[C@]1(C)CCC(=O)C(C)(C)C1=C(O)C2=O | 52.3 µM | Dose-Dependent Effect | Dose-Dependent Effect | Active
2 | C=C[C@@]12C=C(C)C(=O)C=C1[C@]1(C)CC[C@@H](O)C(C)(C)[C@H]1CC2 | 41.8 µM | Dose-Dependent Effect | Dose-Dependent Effect | Active
